Results reported in paper PMC5844530, “Fosmetpantotenate (RE-024), a phosphopantothenate replacement therapy for pantothenate kinase-associated neurodegeneration: Mechanism of action and efficacy in nonclinical models” (PLoS ONE, 2018).

What was measured:
[1] = Metabolic stability in monkey whole blood; assay type: in vitro ADME, cynomolgus monkey; conditions: monkey, blood
Description: Metabolic stability in blood and liver microsomes: Fosmetpantotenate or its individual diastereomers (5 μM, n = 2, 37°C) were incubated in mouse, rat, cynomolgus monkey, and human whole blood. […] Incubations of fosmetpantotenate or its individual diastereomers (1 μM, n = 2, 37°C) in pooled liver microsomes (0.25 mg protein/mL in 0.1 M phosphate buffer pH 7.4) were initiated with the addition of nicotinamide adenine dinucleotide phosphate (NADPH; 1 mM). Aliquots (100 μL) were obtained at 0, 5, 10, 20, and 40 min and added to 150 μL of 0.1% formic acid in acetonitrile-containing carbamazepine (0.5 μM) as an analytical internal standard, centrifuged, and the supernatants analyzed by LC-MS/MS.
(§1) Bioanalysis for determinations of analyte stability: Samples were analyzed using a benchtop tandem quadrupole detector (TQD) mass spectrometer (Waters Ltd, Centennial Park, Hertfordshire). […] Suitable retention and peak shape with separation of the 2 diastereomers were obtained. The chromatography column was a Phenomenex-Kinetex XB C18 (2.10 x 50 mm; 2.6 μm), with a 0.7 mL/min flow rate and a 2 μL injection volume. […] The gradient was initiated with 20% B and increased linearly, reaching 40% B at 0.6 min, followed by 50% B at 0.8 min and by 95% B at 0.9 min. Conditions were kept isocratic through 1.2 min, returned to starting conditions (20% B) at 1.25 min, and maintained at 20% B through 1.5 min before the next injection. Since fosmetpantotenate is a mixture of diastereomers which are resolved chromatographically, the fosmetpantotenate MRM area corresponds to the sum of the MRM areas of the individual diastereomers.
(§2) The percent of compound remaining was determined from the MRM area response in each sample relative to that in the T = 0 samples (normalized for internal standard). Natural log plots of the percent compound remaining over time were used to determine the t½ of compound disappearance using the relationship t½ = -0.693/λ, where λ is the slope of the natural logarithm of the percent compound remaining vs time curve.

[2] = Metabolic stability in human whole blood; assay type: in vitro ADME; conditions: human, blood; for Percentage Remaining: 0 h
Description: (§3) Metabolic stability in blood and liver microsomes: Fosmetpantotenate or its individual diastereomers (5 μM, n = 2, 37°C) were incubated in mouse, rat, cynomolgus monkey, and human whole blood. Samples (50 μL) were taken at 0, 5, 15, 30, and 60 min. Incubations of fosmetpantotenate or its individual diastereomers (1 μM, n = 2, 37°C) in pooled liver microsomes (0.25 mg protein/mL in 0.1 M phosphate buffer pH 7.4) were initiated with the addition of nicotinamide adenine dinucleotide phosphate (NADPH; 1 mM). Aliquots (100 μL) were obtained at 0, 5, 10, 20, and 40 min and added to 150 μL of 0.1% formic acid in acetonitrile-containing carbamazepine (0.5 μM) as an analytical internal standard, centrifuged, and the supernatants analyzed by LC-MS/MS.
as §1, §2

[3] = Metabolic stability in mouse whole blood; assay type: in vitro ADME; conditions: mouse, blood
Description: as §3, §1, §2

[4] = Microdialysis (brain striatal dialysate) in C57Bl6 mice; conditions: striatal dialysate; oral dose at 700 mg/kg; all samples; 700 mg/kg
Description: Mice were anesthetized using isoflurane (2%, 800 mL/min O2).
For oral dosing experiments, MetaQuant microdialysis probes (regenerated cellulose membrane, BrainLink, the Netherlands) were inserted into the striatum (3 mm exposed surface). Coordinates for the tips of the probes for mice were anterior-posterior (AP) = +0.8 mm from bregma, lateral (L) = -1.7 mm from midline, and ventral (V) = -4.0 mm from dura, the toothbar set at 0 mm.
Microdialysis animal dosing and sample collection: Adult non-fasted male C57Bl6 mice (20–29 g; Harlan Laboratories, Livermore, CA), and Macaca fascicularis (4–9 kg, 3–6 yr old) were used for the experiments. For oral dosing, fosmetpantotenate was formulated as a solution in 20% hydroxypropyl-beta-cyclodextrin in 50 mM citrate buffer in water pH 5.0 and administered using a dose volume of 10 mL/kg. Mice (N = 6 serially sampled) received fosmetpantotenate as a single oral dose at 700 mg/kg and monkeys received a single oral dose at either 100 mg/kg (N = 4 serially sampled) or 300 mg/kg (N = 2 serially sampled).
Microdialysis: On the morning of the microdialysis experiment, a MetaQuant probe was inserted into the guide shaft targeting the head of the caudate nucleus and perfused at a rate of 0.15 μL/min aCSF containing 0.2% (w/v) BSA, with a carrier flow of 0.8 μL/min of ultrapure water.
A single 30 min pre-dose basal dialysate sample was collected from mice over -0.5 to 0 h, and three 30 min basal samples from monkeys over -1.5 to 0 h. Fosmetpantotenate was administered at t = 0, and 30 min dialysate samples were collected for an additional 4 h for mice and 3 h for monkeys.
Sample preparation for mouse dialysate samples: Concentrations of fosmetpantotenate, PA, and PPA in mouse dialysate were determined by Nextcea, Inc, Woburn, MA, using LC-MS/MS. Standard curves and QC samples containing fosmetpantotenate (D1 and D2) and the surrogate analytes for PA and PPA (^15N/^13C3-PA and ^15N/^13C3-PPA) were prepared fresh in 0.1% formic acid in water. Frozen study mouse dialysate samples were thawed in ice/water bath. Standards, QC samples, and thawed study dialysate samples (20 μL) were mixed with 20 μL 0.1% formic acid in water containing internal standard (50 ng/mL of ^15N/^13C3-fosmetpantotenate) and analyzed by LC-MS/MS.
LC-MS/MS analysis for mouse dialysate samples: Concentrations of fosmetpantotenate, PA, and PPA in dialysate from mice were determined by using LC-MS/MS conditions described for blood PK analysis by Nextcea, except dialysate samples were analyzed using an ACIEX API 5000 and flow rate was increased to 0.6 mL/min.
Quantitation of in vivo samples: Peak areas were integrated using Analyst software (AB Sciex, Concord, Ontario, Canada). Calibration curves for all blood samples from mouse and rat PK studies and mouse dialysate samples were prepared by plotting the analyte to internal standard (^15N/^13C3-fosmetpantotenate) peak area ratio vs concentration.

[5] = Stability in simulated gastric fluid; assay type: in vitro ADME; conditions: simulated gi fluid, pH 1.2
Description: Stability in simulated gastric fluid: A stock solution of fosmetpantotenate or its individual diastereomers was prepared in 0.1% formic acid in methanol. Simulated gastric fluid, pH 1.2, was prepared with 2 g/L sodium chloride, 3.2 g/L of pepsin, and 0.7% (v/v) HCl. Gastric buffer, pH 1.2, was prepared containing 2 g/L sodium chloride and 0.7% (v/v) HCl. An appropriate aliquot of fosmetpantotenate or individual diastereomers to yield an initial concentration of 10 μM was added to both fluids, and samples were mixed at ~25°C on an orbital shaker. Aliquots (50 μL) were taken at 0, 2, and 4 h; added to 150 μL dimethyl sulfoxide (DMSO) containing an analytical internal standard; vortexed; and analyzed immediately by LC-MS/MS.
as §1, §2

[6] = test system: porcine brain endothelial cell (PBEC) co-culture model
Description: (§4) Permeability studies were performed after 2 days of co-culture with rat astrocytes. […] In each filter used for transport, a paracellular marker was included as an internal control to monitor the integrity of the cell monolayer. The day of the experiment, culture medium was removed and cells on Transwell inserts were pre-incubated for 30 min with Hank's Balanced Salt Solution (HBSS) containing 20 mM Hepes pH 7.4 and 0.1% bovine serum albumin (BSA). […] Aliquots from the basal compartment were taken after 1 h; fluorescence was measured using a fluorescence detector. The permeability coefficient of the total system was calculated as follows: P[cm/s]=Vd×ΔMr/A×Md×Δt Where:
(§5) To correct for the contribution of the porous polycarbonate membrane of the filter in the absence of cells, the permeability was also determined for the cell-free system. Contribution of the endothelial cell monolayer to the permeability of the cell and filter system was determined by the following equation: 1/Pe=1/Pt-1/Pf Where the total permeability of the system is denoted as Pt, the cell-free filter as Pf, and the endothelial cell layer alone as Pe. The total resistance of the system towards passage of a substance is composed of 2 resistances in series: that of the cell monolayer and that of the filter; permeability is estimated as 1/resistance [27]. […] Mass balance was determined based on the amount of compound recovered in the donor and receiver chamber at the end of the assay relative to the amount added to the donor chamber at time 0.

[7] = Metabolic stability in rat whole blood; assay type: in vitro ADME; conditions: rat, blood
Description: as §3, §1, §2

[8] = in vitro; conditions: pH 7.4, In Vitro Measured Papp
Description: as §4, §5

[9] = test system: liver and brain CoA; test: Labeled experiments: incorporation of isotopically labeled fosmetpantotenate into CoA; assay type: in vivo, mouse; conditions: for Liver CoA (%) +4 AMU / Liver CoA (%) +6 AMU / Liver CoA (%) Unlabeled: 500 mg/kg PO
From the text: Fosmetpantotenate was labeled with three ^13C and one ^15N in the PA moiety and with one ^18O in the phosphate moiety, as indicated in Fig 10. The premise of this experiment is the following: if PPA incorporated into CoA originates from fosmetpantotenate metabolism, then all isotope labels (including the ^18O) will be retained in the CoA molecule, resulting in an increase in molecular weight of 6 atomic mass units (AMU) with respect to unlabeled CoA ([M+H]^+ = 774.3 vs 768.3, respectively; Fig 10, Path A). However, if fosmetpantotenate is hydrolyzed to PA, and PA is then re-phosphorylated by WT PanK to yield PPA, or if the ^18O is exchanged with water, then the ^18O would be lost in the process, resulting in a CoA molecule with a 4-AMU increase in molecular weight over unlabeled CoA ([M+H]^+ = 772.3 vs 768.3, respectively, […], Path B). CoA derived from endogenous PA/PPA will have the unchanged molecular weight ([M+H]^+ = 768.3).
Animal phase: C57BL6N mice, 8-week old and 19 to 21 g obtained from Charles River (Como, Italy) were used in these studies. One group of mice (N = 3 per time point) received a single oral dose of 500 mg/kg isotopically labeled fosmetpantotenate dissolved in 20% hydroxypropyl-β-cyclodextrin. Another set of mice (N = 8 per time point) received a direct administration of isotopically labeled fosmetpantotenate at 125 μg (25 mg/mL of aCSF containing 147 mM NaCl, 3.0 mM KCl, 1.2 mM CaCl2, and 1.2 mM MgCl2) via cannula into striatum. Brain, liver, and blood samples were collected at pre-dose, 6 h, 12 h (brain only), and 24 h, and were snap frozen in liquid nitrogen.
Two additional groups of mice (N = 6 per time point for each group) received 3 daily doses (8 am, 2 pm, and 8 pm to mimic an anticipated human dosing schedule) of isotopically labeled fosmetpantotenate at either 1.25 μg (0.625 mg/mL aCSF) or 12.5 μg (6.25 mg/mL aCSF) via ICV infusion cannula (2 μL), for up to 10 consecutive days. Brain (striatum) samples were collected at pre-dose, and at 12 h following the third dose on days 1, 3, 7, and 10, and were snap frozen in liquid nitrogen.
Sample processing: Brain (striatum) and liver tissues were homogenized in a Precellys homogenizer (Bertin technologies, Montigny-le-Bretonneux, France) with 3 volumes of water for each volume of tissue (1:4 dilution). Protein was precipitated by adding 500 μL methanol to 100 μL of homogenate (1:6 dilution), mixed well, and centrifuged. Blood cells (1 volume) were treated with 1:8 v:v water:methanol (1:10 dilution), mixed, and centrifuged. The supernatants (200 μL for brain and blood cells and 100 μL for liver) were dried under nitrogen, reconstituted with 100 μL ammonium acetate 10 mM (pH ~5), and injected (10 μL) into the LC for high resolution mass spectrometry (HRMS) analyses.
CoA determination: An Acquity UPLC (Waters) system was used. Samples were chromatographed on a Luna C18 column (50 x 2.0 mm; 5 μm), with a 0.4 mL/min flow rate and a 10 μL injection volume. The mobile phases were (A), 10 mM ammonium acetate in water, pH 6.8 and (B) acetonitrile:2-propanol (9:1; v:v). The gradient was started with 2% (B) and was increased linearly to reach 20% (B) at 5 min; the gradient was ramped to reach 90% (B) at 5.1 min and kept isocratic at 90% (B) through 7.1 min.
The detector was a Waters QTOF Synapt mass spectrometer, with an electrospray ion source operating in the positive scanning mode acquiring in full scan mode (accuracy <5 ppm). The following exact masses were determined: 768.1230 for CoA, 772.1301 for CoA +4 AMU, and 774.1344 for CoA +6 AMU.
The CoA levels obtained by MS/MS analyses were corrected for ^18O isotopic incorporation. CoA levels were not adjusted for the 1% and 2% of ^12C and ^14N, respectively, in the labeled fosmetpantotenate. […]

COC(=O)CCNC(=O)[C@H](O)C(C)(C)COP(=O)(N[C@@H](C)C(=O)OC)Oc1ccccc1 (single isomer, unassigned) [Compound D1]
Mean half-life [1]: 35 min
Percentage Remaining ([1]; 0 h): 100%
Percentage Remaining ([1]; 5 min): 88%
Mean half-life [2]: 44 min
Percentage Remaining [2]: 100%
Mean half-life [3]: <5 min
Percentage Remaining ([3]; 0 h): 100%
Percentage Remaining ([3]; 5 min): 0%
Percentage Remaining ([3]; 0.25 h): 0%
Dialysate Conc [4]: < 4.72 nM
half-life (t½) in simulated gastric fluid [5]: > 600 min
In Vitro Measured Papp [6]: 4.8 ± 1.8 10^−6 cm/s
Mean half-life [7]: <5 min
Percentage Remaining ([7]; 0 h): 100%
Percentage Remaining ([7]; 0.5 h): 0%

COC(=O)CCNC(=O)[C@H](O)C(C)(C)COP(=O)(N[C@@H](C)C(=O)OC)Oc1ccccc1 (single isomer, unassigned) [Compound D2]
Mean half-life [1]: 17 min
Percentage Remaining ([1]; 0 h): 100%
Percentage Remaining ([1]; 2 h): 1%
Mean half-life [2]: >95 min
Percentage Remaining [2]: 100%
Mean half-life [3]: <5 min
Percentage Remaining ([3]; 0 h): 100%
Percentage Remaining ([3]; 5 min): 1%
Percentage Remaining ([3]; 0.25 h): 1%
Dialysate Conc [4]: < 3.36 nM
half-life (t½) in simulated gastric fluid [5]: > 600 min
In Vitro Measured Papp [6]: 4.0 ± 1.3 10^−6 cm/s
Mean half-life [7]: <5 min
Percentage Remaining ([7]; 0 h): 100%
Percentage Remaining ([7]; 0.5 h): 0%
Percentage Remaining ([7]; 1 h): 0%

Cn1c(=O)c2c(ncn2C)n(C)c1=O [Caffeine]
Papp at 1 h [8]: 34.3 ± 3.1 ×10⁻⁶ cm/s

N[C@@H](Cc1ccc(O)c(O)c1)C(=O)O [L-DOPA, S-3,4-dihydroxyphenylalanine, reference compound]
Papp at 1 h [8]: 5.8 ± 1.9 ×10⁻⁶ cm/s
blood-brain barrier permeability classification [6]: moderate permeability range

OC[C@@H](O)[C@@H](O)[C@H](O)[C@H](O)CO [Mannitol, reference compound]
Papp at 1 h [8]: 2.2 ± 0.7 ×10⁻⁶ cm/s
blood-brain barrier permeability classification [6]: low end of permeability range

COC(=O)C(C)NP(=[18O])(OCC(C)(C)C(O)C(=O)[15NH][13CH2][13CH2][13C](=O)OC)Oc1ccccc1 (centres unmarked) [isotopically-labeled fosmetpantotenate]
Brain CoA (%) +4 AMU ([9]; 1.25 μg ICV, dose day 3): 0%
Brain CoA (%) +6 AMU ([9]; 1.25 μg ICV, dose day 3): 0%
Brain CoA (%) Unlabeled ([9]; 1.25 μg ICV, dose day 3): 100%
Brain CoA (%) +4 AMU ([9]; 1.25 μg ICV, dose day 7): 5%
Brain CoA (%) +6 AMU ([9]; 1.25 μg ICV, dose day 7): 4%
Brain CoA (%) Unlabeled ([9]; 1.25 μg ICV, dose day 7): 91%
Brain CoA (%) +4 AMU ([9]; 1.25 μg ICV, dose day 10): 8%
Brain CoA (%) +6 AMU ([9]; 1.25 μg ICV, dose day 10): 6%
Brain CoA (%) Unlabeled ([9]; 1.25 μg ICV, dose day 10): 86%
Brain CoA (%) +4 AMU ([9]; 12.5 μg ICV, dose day 3): 8%
Brain CoA (%) +6 AMU ([9]; 12.5 μg ICV, dose day 3): 15%
Brain CoA (%) Unlabeled ([9]; 12.5 μg ICV, dose day 3): 77%
Brain CoA (%) +4 AMU ([9]; 12.5 μg ICV, dose day 7): 14%
Brain CoA (%) +6 AMU ([9]; 12.5 μg ICV, dose day 7): 27%
Brain CoA (%) Unlabeled ([9]; 12.5 μg ICV, dose day 7): 59%
Brain CoA (%) +4 AMU ([9]; 12.5 μg ICV, dose day 10): 16%
Brain CoA (%) +6 AMU ([9]; 12.5 μg ICV, dose day 10): 28%
Brain CoA (%) Unlabeled ([9]; 12.5 μg ICV, dose day 10): 56%
Brain CoA (%) +6 AMU ([9]; 12.5 μg ICV, dose day 10, listed as isotopically labeled-fosmetpantotenate): ~ 30%
Brain CoA (%) +4 AMU ([9]; 125 μg intrastriatally, 6 h): 2.8%
Brain CoA (%) +6 AMU ([9]; 125 μg intrastriatally, 6 h): 36.2%
Brain CoA (%) Unlabeled ([9]; 125 μg intrastriatally, 6 h): 61%
Brain CoA (%) +4 AMU ([9]; 125 μg intrastriatally, 12 h): 3.6%
Brain CoA (%) +6 AMU ([9]; 125 μg intrastriatally, 12 h): 46.4%
Brain CoA (%) Unlabeled ([9]; 125 μg intrastriatally, 12 h): 50%
Brain CoA (%) +4 AMU ([9]; 125 μg intrastriatally, 24 h): 4.3%
Brain CoA (%) +6 AMU ([9]; 125 μg intrastriatally, 24 h): 50.7%
Brain CoA (%) Unlabeled ([9]; 125 μg intrastriatally, 24 h): 45%
Brain CoA (%) +6 AMU ([9]; 125 μg intrastriatally, 24 h, listed as isotopically labeled-fosmetpantotenate): ~ 50%
Liver CoA (%) +4 AMU ([9]; 6 h): 1.4%
Liver CoA (%) +6 AMU ([9]; 6 h): 40%
Liver CoA (%) Unlabeled ([9]; 6 h): 58.6%
Liver CoA (%) +6 AMU ([9]; 6 h, listed as isotopically labeled-fosmetpantotenate): ~ 40%
Liver CoA (%) +4 AMU ([9]; 24 h): 8.4%
Liver CoA (%) +6 AMU ([9]; 24 h): 34%
Liver CoA (%) Unlabeled ([9]; 24 h): 58%
Liver CoA (%) +4 AMU ([9]; 24 h, listed as isotopically labeled fosmetpantotenate): 8%
incorporation of fosmetpantotenate-derived PPA in brain CoA ([9]; 500 mg/kg single oral administration): not observed
